The results in this text go back to patent publication US8785638B2, “Thieno [2, 3-B] pyridine derivatives as viral replication inhibitors” (Katholieke Universiteit Leuven, priority 2009, dated 2014).

SMILES strings stand for the structures. pEC50, pIC50: −log10 of the molar value. Read-outs that look alike come from different tables or passages of the source. Bounds are passed on as bounds.

As usually defined, the pIC50 is the IC50 on a negative log10 scale, so that one unit is a factor of ten. Usually pEC50 stands for the negative decadic logarithm of the EC50, by convention in mol/L. Lower therefore signals a high EC50. Broadly, the CC50 is the concentration at which the toxic effect on the cells reaches its halfway point. Low values mean harm at low concentration, high ones better tolerance by the cells.

Data set [1] deals with LEDGF/p75-HIV-1 integrase interaction (Human immunodeficiency virus type 1 group M subtype B (isolate HXB2) (HIV-1), UniProt P04585). Nature of the data set: AlphaScreen assay of LEDGF-integrase interaction inhibition. The data set is classed as binding. As to the method: Alphascreen Assay to Measure the LEDGF-Integrase Interaction Inhibitory Activity of Compounds of the Invention
The AlphaScreen assay was performed according to the manufacturer's protocol (Perkin Elmer, Benelux). Reactions were performed in 25 μl final volume in 384-well Optiwell™ microtiter plates (Perkin Elmer). The reaction buffer contained 25 mM Tris-HCl (pH 7.4), 150 mM NaCl, 1 mM MgCl2, 0.01% (v/v) Tween-20 and 0.1% (w/v) bovine serum albumin. His6-tagged integrase (300 nM final concentration) was incubated with the compounds for 30 min at 4° C. The compounds were added at varying concentrations spanning a wide range from 0.1 up to 100 μM. Afterwards 100 nM flag-LEDGF/p75 was added and incubation was prolonged for an additional hour at 4° C. Subsequently 5 μl of Ni-chelate-coated acceptor beads and 5 μl anti-flag donor beads were added to a final concentration of 20 μg/ml of both beads. Proteins and beads were incubated for 1 h at 30° C. in order to allow association to occur. Exposure of the reaction to direct light was omitted as much as possible and the emission of light from the acceptor beads was measured in the EnVision plate reader (Perkin Elmer, Benelux) and analyzed using the EnVision manager software. IN/DNA binding was analyzed in a similar setting using His6-tagged integrase (1 μM final concentration) and an oligodeoxynucleotide mimicking the IN ELISA oligonucleotide substrate (30 nM final concentration). Counterscreens with JPO2 or PogZ, respectively, were essentially performed as described previously.
His6-tagged HIV-1 integrase, 3xflag-tagged LEDGF/p75, MBP-JPO2 and MBP-PogZ were purified for AlphaScreen applications as described previously 23,25,56.

Data set [2] concerns HIV-1 (IIIB), HIV-1 (NL4.3). Nature of the data set: microbe, parasite or virus in culture. The data set is classed as cell-based. The settings on record: for pEC50: Human immunodeficiency virus 1, IIIB, MT4, MT-4 cells, 50% protection against HIV-induced cytopathogenic effect, MTT; for SI: selectivity index, ratio of CC50 to EC50. As to the method: (§1) A rapid and automated assay procedure was used for the in vitro evaluation of anti-HIV agents. An HTLV-1 transformed T4-cell line MT-4, which was previously shown to be highly susceptible to and permissive for HIV infection, served as the target cell line. Inhibition of the HIV-induced cytopathogenic effect was used as the end point. The viabitlity of both HIV- and mock-infected cells was assessed spectrophotometrically via in situ reduction of 3-(4,5-dimethylthiazol-2-yl)-2,5-diphenyltetrazolium bromide (MTT). The 50% cytotoxic concentration (CC50 in μM or μg/ml) was defined as the concentration of compound that reduced the absorbance of the mock-infected control sample by 50%. The percent protection achieved by the compound in HIV-infected cells was calculated by the following formula:
(§2) [formula] whereby (ODT)HIV is the optical density measured with a given concentration of the test compound in HIV-infected cells; (ODC)HIV is the optical density measured for the control untreated HIV-infected cells; (ODC)MOCK is the optical density measured for the control untreated mock-infected cells; all optical density values were determined at 540 nm. The dose achieving 50% protection according to the above formula was defined as the 50% inhibitory concentration (EC50 in μM or μg/ml). The ratio of CC50 to EC50 was defined as the selectivity index (SI). […] Examples of inhibition of cell proliferation by particular compounds of the invention can be found by looking at the respective CC50 values in the MT-4 cell line. Cells:
(§3) MT-4 cells (Miyoshi et al., 1982) were grown and maintained in RPMI 1640 medium supplemented with 10% heat-inactivated fetal calf serum, 2 mM I-glutamine, 0.1% sodium bicarbonate, and 20 μg of gentamicin per ml. Alternatively, the MT-4 cells may also be grown in RPMI 1640 medium supplemented with 10% FCS and 20 μg/ml of gentamicin (RPMI-complete).
The HIV-1 (IIIB) strain (Popovic et al., 1984) as well as the HIV-1 (NL4.3) strain (Adachi et al., J. Virol. 59, 284-291 (1986)) were used.

Data set [3] in a line: Cytotoxicity in mock-infected MT-4 cells (MTT). The data set is classed as cell-based. As to conditions: human, 50% cytotoxic concentration. Here is the method: as §1, §2, §3
[4] abbreviates: His6-tagged integrase 300 nM, flag-LEDGF/p75 100 nM, read-out: Alphascreen IC50.

Regarding `Cc1nc2sc3c(c2c(-c2cnn(C)c2)c1C(OC(C)(C)C)C(=O)O)CCCC3` (stereo not drawn) [Cpd 177, 2-[2-methyl-4-(1-methyl-1H-pyrazol-4-yl)-5,6,7,8-tetrahydro[1]benzothieno[2,3-b]pyridin-3-yl]-2-tert-butoxyacetic acid], the negative-log IC50 (pIC50) in data set [1] (setting [4]) is 4.93. Further, in data set [2], the negative logarithm of the EC50 (pEC50) was 5.93 and the SI is on record as >181. Besides, the CC50 in data set [3] is > 212 µM.
Taken in the same sequence, the figures for `CCCC(C(=O)O)c1c(C)nc2sc3c(c2c1-c1cccc(C(F)(F)F)c1)CCCC3` (stereo not drawn) [Cpd 140, 2-[2-Methyl-4-(3-trifluoromethylphenyl)-5,6,7,8-tetrahydro[1]benzothieno[2,3-b]pyridin-3-yl]pentanoic acid] were 4.74, 4.55, 4 and 100 µM.
Turning to `CCCC(C(=O)O)c1c(C)nc2sc3c(c2c1-c1ccccc1F)CCCC3` (stereo not drawn) [Cpd 153, 2-[2-Methyl-4-(2-fluorophenyl)-5,6,7,8-tetrahydro[1]benzothieno[2,3-b]pyridin-3-yl]pentanoic acid], the pIC50 in data set [1] (setting [4]) was 4.36. Further, in data set [2], the pEC50 is 4.77 and the SI is >8. In data set [3], the CC50 is > 125 µM.
Taken in the same sequence, the figures for `Cc1ccc(-c2c(C(CC3CC3)C(=O)O)c(C)nc3sc4c(c23)CCCC4)cc1` (stereo not drawn) [Cpd 165, 2-[2-Methyl-4-(p-tolyl)-5,6,7,8-tetrahydro[1]benzothieno[2,3-b]pyridin-3-yl]-3-cyclopropylpropanoic acid] were > 6.00, 6.06, 102 and 89 µM.
Turning to `CCCC(C(=O)O)c1c(C)nc2sccc2c1-c1ccc(C)cc1` (stereo not drawn) [Cpd 119, 2-(6-Methyl-4-p-tolylthieno[2,3-b]pyridin-5-yl)pentanoic acid], the pIC50 in data set [1] (setting [4]) was 5.58. Also, in data set [2], the pEC50 was 4.50 and the SI is reported as 4. In data set [3], the midpoint of cytotoxicity, the CC50, lay at 109 µM.
In data set [1], `CCCC(C(=O)O)c1c(C)nc2sc3c(c2c1-c1ccc(OC)cc1)CCC3` (stereo not drawn) [Cpd 131, 2-[2-Methyl-4-(p-anisyl)-6,7-dihydro-5H-cyclopenta[4,5]thieno[2,3-b]pyridin-3-yl]pentanoic acid] had a pIC50 of 5.34. In data set [2], the pEC50 is 5.61 and the SI amounted to 52. In data set [3], this compound gave a CC50 of 127 µM.
With `CCCC(C(=O)O)c1c(C)nc2sc3c(c2c1-c1ccccc1)CCC3` (stereo not drawn) [Cpd 107, 2-[2-Methyl-4-phenyl-6,7-dihydro-5H-cyclopenta[4,5]thieno[2,3-b]pyridin-3-yl]pentanoic acid], in data set [1] (setting [4]), the negative logarithm of the IC50 (pIC50) is 4.46. Also, in data set [2], the pEC50 is 4.88 and the SI amounted to 8. For the same compound, in data set [3], the midpoint of cytotoxicity, the CC50, lay at 75.7 µM.
`CCCC(C(=O)O)c1c(C)nc2sc3c(c2c1-c1cc2ccccc2o1)CCCC3` (stereo not drawn) [Cpd 154, 2-[2-Methyl-4-(benzofuran-2-yl)-5,6,7,8-tetrahydro[1]benzothieno[2,3-b]pyridin-3-yl]pentanoic acid]: the pIC50 in data set [1] (setting [4]) was 5.09. Besides, in data set [2], the pEC50 was 5.20 and the SI is reported as 14. The CC50 in data set [3] came out at 90.5 µM.
`CCCC(C(=O)O)c1c(C)nc2sc(C)c(C)c2c1-c1ccc(C)cc1` (stereo not drawn) [Cpd 108, 2-(2,3,6-Trimethyl-4-p-tolylthieno[2,3-b]pyridin-5-yl)pentanoic acid]: in data set [1] (setting [4]), the pIC50 is 5.35. In addition, in data set [2], the negative-log EC50 (pEC50) is 5.66 and the SI came out at 27. Moreover, the CC50 in data set [3] stood at 57.9 µM.
For the compound `CCCC(C(=O)O)c1c(C)nc2sc3c(c2c1-c1ccc(Cl)cc1)CCC3` (stereo not drawn) [Cpd 112, 2-[2-Methyl-4-(4-chlorophenyl)-6,7-dihydro-5H-cyclopenta[4,5]thieno[2,3-b]pyridin-3-yl]pentanoic acid], the pIC50 in data set [1] (setting [4]) is 5.95. In addition, in data set [2], the pEC50 is 6.10 and the SI was found to be 84. Moreover, it took 67.7 µM to reach half-maximal cytotoxicity in data set [3] (CC50).
Turning to `CCC(C)C(C(=O)O)c1c(C)nc2sc3c(c2c1-c1ccc(C)cc1)CCCC3` (stereo not drawn) [Cpd 157, 2-[2-Methyl-4-(p-tolyl)-5,6,7,8-tetrahydro[1]benzothieno[2,3-b]pyridin-3-yl]-3-methylpentanoic acid], in data set [1] (setting [4]), the pIC50 was 4.58. The pEC50 in data set [2] is < 4.46. This compound registered a CC50 in data set [3] of 35 µM.
The corresponding values for `CCCC(C(=O)O)c1c(C)nc2sc3c(c2c1-c1ccccc1Cl)CCCC3` (stereo not drawn) [Cpd 137, 2-[2-Methyl-4-(2-chlorophenyl)-5,6,7,8-tetrahydro[1]benzothieno[2,3-b]pyridin-3-yl]pentanoic acid] are 4.28, < 3.95 and 111 µM.
As for `CCCC(C(=O)O)c1c(C)nc2sc(C)cc2c1-c1ccc(C)cc1` (stereo not drawn) [Cpd 110, 2-(2,6-Dimethyl-4-p-tolylthieno[2,3-b]pyridin-5-yl)pentanoic acid], in data set [1] (setting [4]), the pIC50 was 5.37. For the same compound, in data set [2], the pEC50 was 6.12 and the SI came to 95. This compound had a CC50 in data set [3] of 72.2 µM.
Taken in the same sequence, the figures for `Cc1nc2sc3c(c2c(-c2ccc4ncsc4c2)c1C(OC(C)(C)C)C(=O)O)CCCC3` (stereo not drawn) [Cpd 186, 2-[2-methyl-4-(benzo[d]thiazol-6-yl)-5,6,7,8-tetrahydro[1]benzothieno[2,3-b]pyridin-3-yl]-2-tert-butoxyacetic acid] were 6.37, 7.42, 2900 and 110 µM.
For the compound `CCC[C@@H](C(=O)O)c1c(C)nc2sc3c(c2c1-c1ccc(C)cc1)CCCC3` [Cpd 115, (2R)-[2-Methyl-4-p-tolyl-5,6,7,8-tetrahydro[1]benzothieno[2,3-b]pyridin-3-yl]pentanoic acid], in data set [1] (setting [4]), the pIC50 is 4.75. In data set [2], the pEC50 is 5.30 and the SI was found to be 26. In data set [3], this compound showed a CC50 of 131 µM.
With `CCCC(C(=O)O)c1c(C)nc2sc3c(c2c1-c1ccc(CC)cc1)CCCC3` (stereo not drawn) [Cpd 149, 2-[2-Methyl-4-(4-ethylphenyl)-5,6,7,8-tetrahydro[1]benzothieno[2,3-b]pyridin-3-yl]pentanoic acid], the pIC50 in data set [1] (setting [4]) was 4.13. The pEC50 in data set [2] is < 4.17. The same compound gave a cytotoxic concentration (CC50) in data set [3] of 67 µM.
On to `CCCC(C(=O)O)c1c(C)nc2sc3c(c2c1-c1ccc(C)cc1)CCC3` (stereo not drawn) [Cpd 100, 2-[2-Methyl-4-p-tolyl-6,7-dihydro-5H-cyclopenta[4,5]thieno[2,3-b]pyridin-3-yl]pentanoic acid], for which the pIC50 in data set [1] (setting [4]) was 5.18. Besides, in data set [2], the pEC50 was 5.77 and the SI amounted to 72. Further, it took 121 µM to reach half-maximal cytotoxicity in data set [3] (CC50).
For `COCC(C(=O)O)c1c(C)nc2sc3c(c2c1-c1ccc(C)cc1)CCC3` (stereo not drawn) [Cpd 125, 2-[2-Methyl-4-(p-tolyl)-6,7-dihydro-5H-cyclopenta[4,5]thieno[2,3-b]pyridin-3-yl]-3-methoxypropanoic acid], in data set [1] (setting [4]), the pIC50 was 4.11. In data set [2], the pEC50 is 4.18 and the SI is >2. Further, in data set [3], the CC50 is > 125 µM.
With `CCCC(C(=O)NC#N)c1c(C)nc2sc3c(c2c1-c1ccc(C)cc1)CCCC3` (stereo not drawn) [Cpd 166, N-cyano-2-[2-Methyl-4-p-tolyl-5,6,7,8-tetrahydro[1]benzothieno[2,3-b]pyridin-3-yl]pentanamide], the pIC50 in data set [1] (setting [4]) was 5.52. Also, the negative logarithm of the EC50 (pEC50) in data set [2] was < 3.88. In addition, half-maximal cytotoxicity in data set [3] (CC50) was put at 131 µM.
